Data published in PMC6220303 (EMBO Molecular Medicine, 2018).
Values joined by “and” are separate entries in the source; they are usually repeats but may differ in a detail not shown here. Identical values can stand only once. Like-named read-outs stand apart in the source and are kept apart here.

How the values were obtained:
Aβ40 and Aβ42 in dog CSF = Aβ40 and Aβ42 in dog CSF after single oral dose, PK/PD modeling; type: in vivo; conditions: Canis lupus familiaris
Procedure: Therefore, we measured Aβ40 in rat brain tissue 4 h after oral administration over a range of doses. […] In addition, the effect‐over‐time curves for brain and CSF almost completely superimposed, showing that Aβ pharmacodynamics in CSF mirrors very well that in brain tissue.
(§1) Electrochemiluminescence immunoassays (Mesoscale Diagnostics, Rockville, MD, USA) were used to determine Aβ38, Aβ40, Aβ42, sAPPα, and sAPPβ. For studies in normal mice and rats, the endogenous Aβ40 was extracted from the brain homogenate with 1% Triton X‐100, and the 4G8‐based assay kit was used for quantification according to the manufacturer's instructions. CSF was collected from the cisterna magna and also analyzed using the 4G8 kit. For studies in dogs, CSF was collected via a ventricular port, and the 6E10‐based Mesoscale Diagnostics kit for Aβ was used. For studies in APP23 mice, Aβ40 and Aβ42 were determined after extraction with 70% formic acid and subsequent neutralization.

APP23‐transgenic mice = test: Chronic treatment of APP23-transgenic mice, 6 months in food; type: in vivo, mouse
Procedure: The total amount of Aβ40 and Aβ42 in formic acid‐solubilized forebrain was determined by Aβ immunoassay. […] Next, we investigated the effects of long‐term Aβ reduction on downstream pathology relevant for Alzheimer's disease, in particular neuroinflammation. Specifically, we used double‐immunofluorescence staining with NT12+anti‐Iba1 and NT12+anti‐GFAP to examine the number and localization of microglia and activated astrocytes, respectively (Fig 4E). […] The reason for the different sensitivity of microglia and astrocytes distant to plaques is currently not clear.
as §1
Amyloid plaques were stained using the Novartis-internal rabbit anti-Aβ antibody NT12, which recognizes all forms of Aβ (Neumann et al, 2015). Activated astrocytes were detected using a commercial rabbit anti-GFAP (Z0334, Dako Schweiz GmbH, Baar, Switzerland, dilution 1:2000 in antibody diluent). Microglia cells were detected using a rabbit anti-Iba1 antibody (019-19741, Wako Chemicals GmbH, Neuss, Germany, dilution 1:200 in antibody diluent). All stainings were performed using the fully automated instrument Ventana Discovery® Ultra (Roche Diagnostics Schweiz AG, Rotkreuz, Switzerland). All chemicals were provided by Roche Diagnostic. Paraffin-embedded brain tissue sections of 3 µm were freshly cut and collected on SuperFrost+ slides. The tissues sections were de-paraffinized and rehydrated under solvent-free conditions (EZprep solution) followed by antigen retrieval (demasking) performed by heat retrieval cycles for 32 min in EDTA-based buffer (CC1 solution). Subsequently, slides were blocked for 4 min using the DISC Inhibitor RUO (reference 07017944001). The primary antibody anti-NT12 diluted at 1:20 000 in antibody diluent was manually added to tissue sections and incubated for 1h at room temperature. A short post-fixation (glutaraldehyde at 0.05%) was done before applying the […]
Detection was performed using the DISCOVERY FITC® following the manufacturer’s recommendations. Slides were then heat denaturated at 92°C for 20 min before a manual application of the second primary antibody (anti-GFAP diluted at 1:2000, anti-Iba1 diluted at 1:200) and incubated for 1h at room temperature. Sections were then incubated for 20 min at room temperature with UltraMap-anti-Rabbit HRP antibody, and the DISCOVERY Rhodamine kit […]
The slides were washed and mounted using Prolong® Gold antifade reagent (P36931, ThermoFisher, Switzerland) and further scanned with the Hamamatsu slide scanner instrument […]
(NanoZoomer 2.0 HT, scanning software NDP-Scan Version 2.5, Hamamatsu Photonics France, Swiss Office, Solothurn, Switzerland) at the 40x objective. The scanning settings were as follow: the exposure time with the DAPI filter was set at 57 ms, as was the FITC filter. The exposure time for the TRITC filter (detection of Rhodamine) was set at 14.2 ms.
For the quantitative plaque and blood vessel-associated Aβ evaluation based on image analysis, a proprietary image analysis platform (ASTORIA, Automated Stored Image Analysis) was developed based on MS Visual Studio 2010 and many functions from Matrox MIL V9 libraries (Matrox Inc, Quebec, Canada).
For the Aβ plaque, neuroinflammation and blood vessel analyses, the following sequence of steps was performed. (1) Slides were scanned with Hamamatsu Nanozoomer at 40x […]
magnification. […]

[1] = test system: CHO cells (wild‐type APP); test: Cellular Aβ40 release assay; type: cell-based; conditions: Cricetulus griseus, inhibition of Aβ40 release, six batches, each in triplicate
Procedure: (§2) Cellular Aβ release assays were done in CHO cells stably transfected with human wild‐type and human APP were done as described (Neumann et al, 2015). Determinations of logD, pKa, and binding to brain homogenates were done internally at Novartis, Basel. Plasma protein binding was determined by equilibrium dialysis using diluted plasma from the corresponding species. MDR‐1‐MDCK cells were obtained from Prof. A. Berns, Netherlands Cancer Institute, Amsterdam NL, and bi‐directional transport measurements were done as described (Rueeger et al, 2011). Receptor binding assays were done against an internal receptor panel and externally at Ricerca Biosciences, Peitou, Taiwan. In vitro binding and cellular patch clamp assays for hERG were done at Preclinical Safety, Novartis, Basel.

[2] = test system: CHO cells (“Swedish” APP); test: Cellular Aβ40 release assay; type: cell-based; conditions: Cricetulus griseus, inhibition of Aβ40 release, three batches, triplicates
Procedure: as §2

H Nav 1.2 = H Nav 1.2 (Homo sapiens, UniProt Q99250); test: Functional assay; type: biochemical; conditions: read-out: Inhibition at 10 µM
Chain of H Nav 1.2 (Q99250 whole entry): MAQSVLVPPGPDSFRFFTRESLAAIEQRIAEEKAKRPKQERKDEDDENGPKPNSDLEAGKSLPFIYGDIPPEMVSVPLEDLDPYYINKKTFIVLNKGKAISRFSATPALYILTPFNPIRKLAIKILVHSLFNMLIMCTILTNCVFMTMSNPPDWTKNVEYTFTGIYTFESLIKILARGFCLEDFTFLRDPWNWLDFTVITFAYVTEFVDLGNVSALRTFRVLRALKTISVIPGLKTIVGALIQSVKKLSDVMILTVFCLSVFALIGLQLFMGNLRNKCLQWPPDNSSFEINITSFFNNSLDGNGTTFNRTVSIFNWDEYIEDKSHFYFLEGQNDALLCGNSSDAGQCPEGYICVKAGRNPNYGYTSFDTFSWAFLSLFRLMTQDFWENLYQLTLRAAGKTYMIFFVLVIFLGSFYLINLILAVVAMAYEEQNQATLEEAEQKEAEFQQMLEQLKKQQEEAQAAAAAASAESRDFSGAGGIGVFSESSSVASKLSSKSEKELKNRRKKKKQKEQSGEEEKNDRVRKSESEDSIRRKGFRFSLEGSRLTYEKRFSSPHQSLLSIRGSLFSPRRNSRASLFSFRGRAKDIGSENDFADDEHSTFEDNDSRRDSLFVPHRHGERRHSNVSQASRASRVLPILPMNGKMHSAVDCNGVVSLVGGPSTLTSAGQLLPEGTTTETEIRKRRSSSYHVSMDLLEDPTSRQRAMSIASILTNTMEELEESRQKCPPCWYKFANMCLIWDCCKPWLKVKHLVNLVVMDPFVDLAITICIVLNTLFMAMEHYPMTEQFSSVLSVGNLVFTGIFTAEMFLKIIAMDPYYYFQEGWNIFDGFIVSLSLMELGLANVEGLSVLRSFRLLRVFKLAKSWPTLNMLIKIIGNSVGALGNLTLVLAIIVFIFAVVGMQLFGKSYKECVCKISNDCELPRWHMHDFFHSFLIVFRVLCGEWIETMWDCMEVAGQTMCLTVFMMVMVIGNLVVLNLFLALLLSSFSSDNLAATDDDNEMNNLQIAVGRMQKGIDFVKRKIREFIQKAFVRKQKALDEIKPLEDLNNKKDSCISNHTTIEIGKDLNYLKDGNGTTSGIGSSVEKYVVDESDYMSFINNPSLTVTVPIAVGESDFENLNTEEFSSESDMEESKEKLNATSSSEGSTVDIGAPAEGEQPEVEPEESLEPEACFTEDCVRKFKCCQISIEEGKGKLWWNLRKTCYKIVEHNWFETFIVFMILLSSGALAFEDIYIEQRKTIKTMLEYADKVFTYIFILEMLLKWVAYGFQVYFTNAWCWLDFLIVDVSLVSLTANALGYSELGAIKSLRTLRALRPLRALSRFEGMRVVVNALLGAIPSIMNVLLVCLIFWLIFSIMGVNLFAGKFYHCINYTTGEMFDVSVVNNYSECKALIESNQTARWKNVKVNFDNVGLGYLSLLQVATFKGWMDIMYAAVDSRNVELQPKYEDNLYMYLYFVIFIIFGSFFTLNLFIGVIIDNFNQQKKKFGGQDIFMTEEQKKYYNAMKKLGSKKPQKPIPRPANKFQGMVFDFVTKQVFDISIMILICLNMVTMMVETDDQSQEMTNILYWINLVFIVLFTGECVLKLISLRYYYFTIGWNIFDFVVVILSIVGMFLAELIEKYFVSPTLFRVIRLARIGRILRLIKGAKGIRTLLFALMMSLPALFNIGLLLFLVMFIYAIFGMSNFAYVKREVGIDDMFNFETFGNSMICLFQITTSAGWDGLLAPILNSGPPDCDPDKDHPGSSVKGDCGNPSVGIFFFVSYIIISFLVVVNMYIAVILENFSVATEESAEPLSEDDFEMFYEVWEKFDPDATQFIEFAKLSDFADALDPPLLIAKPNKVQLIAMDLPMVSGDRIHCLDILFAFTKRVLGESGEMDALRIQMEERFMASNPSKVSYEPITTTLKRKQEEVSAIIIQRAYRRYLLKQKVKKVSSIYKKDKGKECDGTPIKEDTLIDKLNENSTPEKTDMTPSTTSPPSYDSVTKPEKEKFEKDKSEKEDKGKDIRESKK
Procedure: as §2

[3] = target: Monoamine transporter VMAT2 (Rattus norvegicus, UniProt Q01827); test: Functional assay; type: biochemical; conditions: read-out: Inhibition at 10 µM
Chain of Monoamine transporter VMAT2 (Rattus norvegicus, UniProt Q01827) (Q01827 whole entry): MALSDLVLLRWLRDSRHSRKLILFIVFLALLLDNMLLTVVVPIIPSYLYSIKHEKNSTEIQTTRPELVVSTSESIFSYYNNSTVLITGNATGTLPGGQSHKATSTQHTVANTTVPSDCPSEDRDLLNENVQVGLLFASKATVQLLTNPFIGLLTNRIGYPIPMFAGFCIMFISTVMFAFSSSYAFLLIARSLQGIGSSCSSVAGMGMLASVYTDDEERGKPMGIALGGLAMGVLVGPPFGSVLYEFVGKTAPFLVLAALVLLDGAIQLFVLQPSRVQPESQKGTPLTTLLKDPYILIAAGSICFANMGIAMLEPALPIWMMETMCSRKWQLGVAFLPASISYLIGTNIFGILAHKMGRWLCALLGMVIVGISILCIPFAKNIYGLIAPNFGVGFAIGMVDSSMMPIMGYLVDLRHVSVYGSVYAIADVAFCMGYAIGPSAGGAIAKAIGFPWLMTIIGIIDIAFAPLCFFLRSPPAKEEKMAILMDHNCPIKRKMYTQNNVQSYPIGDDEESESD
Procedure: as §2

CSF Aβ40 = test: Human CSF Aβ40, Phase IIa study of 3-month duration; type: in vivo; conditions: for reduction in CSF Aβ40 concentrations: 3 months, mean ± SEM
Text: All study participants underwent CSF sampling at baseline and at the end of treatment; in addition, we collected CSF at a number of intermediate time points (n = 2–7/time point).
CSF Aβ38, Aβ40, Aβ42, sAPPα, and sAPPβ were quantified in human CSF with 0.2% (v/v) Tween®‐20 using validated sandwich‐based multiplexed electrochemiluminescence methods (MesoScale Discovery, […], MD, USA). […]
Secondary • To assess the change from baseline of CSF Aβ concentrations (Aβ1-
Objectives 38; Aβ1-40; Aβ1-42) in healthy elderly subjects over 13 weeks

[4] = target: Monoamine transporter VMAT2 (Oryctolagus cuniculus, UniProt G1T2K3); test: Receptor panel binding; design: species or system Rabbit; conditions: read-out: Inhibition at 10 µM
Chain of Monoamine transporter VMAT2 (Oryctolagus cuniculus, UniProt G1T2K3) (G1T2K3 1-509): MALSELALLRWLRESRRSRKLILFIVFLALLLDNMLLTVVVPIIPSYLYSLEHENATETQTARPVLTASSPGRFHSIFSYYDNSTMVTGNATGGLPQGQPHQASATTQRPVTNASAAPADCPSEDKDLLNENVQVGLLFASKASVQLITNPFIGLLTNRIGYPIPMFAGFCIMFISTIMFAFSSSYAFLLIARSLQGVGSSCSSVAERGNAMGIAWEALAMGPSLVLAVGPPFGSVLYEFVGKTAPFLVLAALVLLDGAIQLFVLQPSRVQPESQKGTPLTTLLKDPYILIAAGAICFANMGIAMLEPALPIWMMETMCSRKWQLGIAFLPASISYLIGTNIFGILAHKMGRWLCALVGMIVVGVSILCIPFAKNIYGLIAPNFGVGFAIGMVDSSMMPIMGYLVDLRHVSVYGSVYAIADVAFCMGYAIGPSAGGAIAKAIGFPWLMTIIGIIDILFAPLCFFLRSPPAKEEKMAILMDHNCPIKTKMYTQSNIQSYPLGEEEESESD
Procedure: as §2

## C[C@@]1(c2nc(NC(=O)c3ncc(C(F)(F)F)cc3Cl)ccc2F)CO[C@@](C)(C(F)(F)F)C(N)=N1 [CNP520]
Aβ40 and Aβ42 in dog CSF; read-out: IC50 in vivo (free ED50), unbound CNP520 in dog blood, PK/PD modeling estimate
  IC50: 3.3 ± 0.03 nM
Aβ40 and Aβ42 in dog CSF; read-out: IC50 in vivo, total CNP520 in dog blood, PK/PD modeling estimate
  IC50: 103 ± 12.3 nM
APP23‐transgenic mice; 4 and 40 mg/kg/day in food
  CNP520 concentration in blood and brain at end of study: approximately dose‐proportional
APP23‐transgenic mice; 4 and 40 mg/kg/day in food, 6 months, dose-dependent
  total Aβ-plaque area in the cortex (normalized to sample area) compared with vehicle: decreased
APP23‐transgenic mice; 6 months
  sAPPα in mouse brain: increased
APP23‐transgenic mice; 6 months, dose-dependent
  increase in GFAP-stained astrocytes: prevented this increase
  sAPPβ in mouse brain: decreased
APP23‐transgenic mice; high dose 40 mg/kg/day, 6 months
  formic acid-soluble Aβ40 and Aβ42 in forebrain compared with vehicle: profoundly reduced
APP23‐transgenic mice; separate study, first data, authors' response in review file
  effect on CAA (vascular Aβ) in APP23 mice: reduction of vascular Aβ
[1]
  IC50: 2.8 ± 0.2 nM
[2]
  IC50: 44 ± 0.4 nM
H Nav 1.2
  inhibition at 10 µM: 23.6%
[3]
  inhibition at 10 µM: 80%
CSF Aβ40; 2-mg daily dose
  reduction in CSF Aβ40 concentrations: 22.6 ± 2.1%
CSF Aβ40; 85-mg daily dose
  reduction in CSF Aβ40 concentrations: 90.7 ± 0.37%
CSF Aβ40; corrected for plasma protein binding, human plasma
  ED50(free): 3.3 nM
CSF Aβ40; human plasma, Phase IIa
  ED50: total plasma CNP520 concentration at fifty percent reduction of CSF Aβ40: 37.5 ± 2.9 ng/ml and 73.5 ± 5.8 nM
[4]
  inhibition at 10 µM: 79%
